Key:
[1] = system: human cortical neurons; test: Inhibition of toxicity of β-amyloid peptide to human neuronal cells (alamarBlue); type: cell-based; settings: 50 μM β-amyloid peptide, 2-3 days; on average where more than one duplicate experiment; compound concentration not stated
Description: The purpose of this test is to determine the effect of 3-indolyl-5-pyrazolone compounds on the toxicity of β-amyloid peptide to neuronal cells.
Primary Human Cortical Cell Culture
Primary human cortical cultures were prepared using a modification of the procedure described by Seubert, et al.^21 Following filtration through Nitex nylon screens, cortical tissue was resuspended in a trypsin/EDTA solution (0.05% trypsin+0.53 mM EDTA in HBSS; GIBCO Laboratories, Grand Island, N.Y., USA) and kept at 37° C. for 20 minutes. The trypsin was then inactivated by resuspending the cells in serum-containing medium (MEM/FBS: Modified Eagles' Medium (MEM) containing 1% glucose, 1 mM sodium pyruvate, 1 mM glutamine, and supplemented with 10% fetal bovine serum (GIBCO). Cells were then pelleted by centrifugation and resuspended in a chemically-defined medium (MEM/B27: MEM containing B27 supplement in place of FBS; GIBCO). Polyethyleneimine (PEI; Sigma Chemical Company, St. Louis, Mo., USA)-coated 6.4 mm (96-well) dishes were rinsed once with MEM/FBS, and then seeded at 0.75 to 1.25×10^5 cells per well in 0.1 mL MEM/B27. Cultures were maintained in a H2 O-saturated incubator with an atmosphere of 95% air/5% CO 2 at 37° C. The culture medium was exchanged twice weekly. Cell viability was visually assessed by phase contrast microscopy and quantified by measuring the reduction of alamarBlue™ (Alamar Biosciences, Inc., Sacramento, Calif., USA).
β-amyloid peptide stock solutions were prepared as 1 mM stocks in sterile, doubly distilled water immediately prior to addition to cultures. Rat cortical neurons were exposed to β-amyloid peptide by removing the culture medium and replacing it with DMEM/N2 (GIBCO Laboratories,Grand Island, N.Y., USA) containing 10 to 20 μM β-amyloid peptide. Human cortical neurons were exposed to test compound plus β-amyloid peptide by removing the culture medium and replacing it with MEM containing 50 μM β-amyloid peptide. Cultures were maintained for 2-3 days before neuronal survival was quantified using alamarBlue™.
The alamarBlue™ assay incorporates a fluorometric/colorimetric metabolic indicator (Alamar Biosciences, Inc. Sacramento, Calif., USA). Viable cells convert alamarBlue™ from an oxidized (non-fluorescent, blue) form to a reduced (fluorescent, red) form. Assays were preformed by replacing the culture media with a 10% alamarBlue™ solution in DMEM (rat cortical cultures) or MEM (human cortical cultures).

[2] = system: β-amyloid peptide production; test: Cellular screen for inhibitors of β-amyloid production (ELISA, 293 751 SWE cells); type: cell-based, human; settings: 2 h pretreatment + 2 h, normalized for cytotoxicity (MTT), concentration not given
Description: (§1) This screening assay employed cells (K293=human kidney cell line) which were stably transfected with the gene for amyloid precursor protein 751 (APP751) containing the double mutation Lys651 Met652 to Asn651 Leu652 (APP751 numbering) in the manner described in International Patent Application Publication No. 94/10569^1 and Citron et al.^16. This mutation is commonly called the Swedish mutation and the cells, designated as "293 751 SWE", were plated in Coming 96-well plates at 1.5-2.5×10^4 cells per well in Dulbecco's minimal essential media plus 10% fetal bovine serum. Cell number is important in order to achieve β-amyloid ELISA results within the linear range of the assay (~0.2 to 2.5 ng per mL).
Following overnight incubation at 37° C. in an incubator equilibrated with 10% carbon dioxide, media were removed and replaced with 200 μL of a substituted 3-indolyl-5-pyrazolone (drug) containing media per well for a two hour pretreatment period and cells were incubated as above.
At the end of the pretreatment period, the media were again removed and replaced with fresh drag containing media as above and cells were incubated for an additional two hours. After treatment, plates were centrifuged in a Beckman GPR at 1200 rpm for five minutes at room temperature to pellet cellular debris from the conditioned media. From each well, 100 μL of conditioned media or appropriate dilutions thereof were transferred into an ELISA plate precoated with antibody 266 against amino acids 13-28 of β-amyloid peptide as described in International Patent Application Publication No. 94/10569^1 and stored at 4° C. overnight. An ELISA assay employing labelled antibody 6C6 against amino acids 1-16 of β-amyloid peptide was run the next day to measure the amount of β-amyloid peptide produced.
The results of the β-amyloid peptide ELISA were fit to a standard curve and expressed as ng/mL β-amyloid peptide. […] All results are the mean and standard deviation of at least six replicate assays.

[3] = system: 293 751 SWE cells; test: Cytotoxicity (MTT) in 293 751 SWE cells; type: cell-based, human; settings: concentration not given
Description: as §1
Cytotoxic effects of the compounds were measured by a modification of the method of Hansen, et al.^17. To the cells remaining in the tissue culture plate was added 25 μL of a 3,(4,5-dimethylthiazol-2-yl)2,5-diphenyltetrazolium bromide (MTT) stock solution (5 mg/mL) to a final concentration of 1 mg/mL. Cells were incubated at 37° C. for one hour, and cellular activity was stopped by the addition of an equal volume of MTT lysis buffer (20% w/v sodium dodecylsulfate in 50% dimethylformamide, pH 4.7). Complete extraction was achieved by overnight shaking at room temperature. The difference in the OD562nm and the OD650nm was measured in a Molecular Device's UVmax microplate reader as an indicator of the cellular viability.

Row | Structure (SMILES) | inhibition of the toxicity of β-amyloid peptide to human neuronal cells [1] | reduction of β-amyloid peptide production as compared to control [2] | cytotoxic effect on the 293 751 SWE cells [3]
1 | COc1ccc2c(c1)c(CC1=NN(C3CCC3)C(=O)C1)c(C)n2C(=O)c1ccc(Cl)cc1 [Example 10, 3-[1-(4-chlorobenzoyl)-5-methoxy-2-methyl-3-indolylmethyl]-1-cyclobutyl-5-pyrazolone] | at least 25% |  | 
2 | O=C1CC(Cc2cn(C(=O)c3ccc(Cl)cc3)c3ccccc23)=NN1C1CCCCC1 [Example 19, 3-[1-(4-chlorobenzoyl)-3-indolylmethyl]-1-cyclohexyl-5-pyrazolone] | at least 25% | at least 20% | did not have a significant cytotoxic effect
3 | COc1ccc2c(c1)c(CC1=NN(c3ccc(C(F)(F)F)cc3)C(=O)C1)c(C)n2C(=O)c1ccc(Cl)cc1 [Example 37, 3-[1-(4-chlorobenzoyl)-5-methoxy-2-methyl-3-indolylmethyl]-1-(4-trifluoromethylphenyl)-5-pyrazolone] |  | at least 20% | did not have a significant cytotoxic effect
4 | COc1ccc2c(c1)c(CC1=NN(C3CCCCC3)C(=O)C1)c(C)n2C(=O)c1ccc(Cl)c(Cl)c1 [Example 39, 3-[1-(3,4-dichlorobenzoyl)-5-methoxy-2-methyl-3-indolylmethyl]-1-cyclohexyl-5-pyrazolone] |  | at least 20% | did not have a significant cytotoxic effect
5 | COc1ccc2c(c1)c(CC1=NN(c3cccc(N)c3)C(=O)C1)c(C)n2C(=O)c1ccc(Cl)cc1 [Example 40, 3-[1-(4-chlorobenzoyl)-5-methoxy-2-methyl-3-indolylmethyl]-1-(3-aminophenyl)-5-pyrazolone] | at least 25% | < 20% | 
6 | COc1ccc2c(c1)c(CC1=NN(C3CCCCC3)C(=O)C1C)c(C)n2C(=O)c1ccc(Cl)cc1 (stereo not drawn) [Example 43, 3-[1-(4-chlorobenzoyl)-5-methoxy-2-methyl-3-indolylmethyl]-1-cyclohexyl-4-methyl-5-pyrazolone] |  | at least 20% | did not have a significant cytotoxic effect
7 | COc1ccc2c(c1)c(CC1=NN(C3CCCCC3)C(=O)C1(C)C)c(C)n2C(=O)c1ccc(Cl)cc1 [Example 44, 3-[1-(4-chlorobenzoyl)-5-methoxy-2-methyl-3-indolylmethyl]-1-cyclohexyl-4,4-dimethyl-5-pyrazolone] |  | at least 20% | did not have a significant cytotoxic effect
8 | COc1ccc2c(c1)c(CC1=NN(C3CCCCC3)C(=O)C1=Cc1ccccc1)c(C)n2C(=O)c1ccc(Cl)cc1 [Example 45, 3-[1-(4-chlorobenzoyl)-5-methoxy-2-methyl-3-indolylmethyl]-1-cyclohexyl-4-benzylidene-5-pyrazolone] | < 25% | < 20% | 
9 | COc1ccc2c(c1)c(CC1=NN(C)C(=O)C1)c(C)n2C(=O)c1ccc(Cl)cc1 [Example 46, 3-[1-(4-chlorobenzoyl)-5-methoxy-2-methyl-3-indolylmethyl]-1-methyl-5-pyrazolone] |  | at least 20% | did not have a significant cytotoxic effect
10 | O=C1CC(CCCc2c[nH]c3ccccc23)=NN1C1CCCCC1 [Example 49, 3-[3-indolyl-n-propyl]-1-cyclohexyl-5-pyrazolone] |  | at least 20% | did not have a significant cytotoxic effect
11 | COc1ccc2c(c1)c(CC1=NN(c3cccc(C(F)(F)F)c3)C(=O)C1)c(C)n2C(=O)c1ccc2ccccc2c1 [Example 51] |  | at least 20% | did not have a significant cytotoxic effect
12 | COc1ccc2c(c1)c(CC1=NN(c3cccc(C(F)(F)F)c3)C(=O)C1)c(C)n2C(=O)c1ccccc1 [Example 53, 3-[1-benzoyl-5-methoxy-2-methyl-3-indolylmethyl]-1-(3-trifluoromethylphenyl)-5-pyrazolone] |  | at least 20% | did not have a significant cytotoxic effect
13 | COc1ccc2c(c1)c(CC1=NN(c3ccc(C(F)(F)F)cc3)C(=O)C1)c(C)n2C(=O)c1ccc(C#N)cc1 [Example 55, 3-[1-(4-cyanobenzoyl)-5-methoxy-2-methyl-3-indolylmethyl]-1-(4-trifluoromethylphenyl)-5-pyrazolone] |  | at least 20% | did not have a significant cytotoxic effect
14 | COc1ccc(C(=O)n2c(C)c(CC3=NN(C4CCCCC4)C(=O)C3)c3cc(OC)ccc32)cc1 [Example 57, 3-[1-(4-methoxybenzoyl)-5-methoxy-2-methyl-3-indolylmethyl]-1-cyclohexyl-5-pyrazolone] |  | at least 20% | did not have a significant cytotoxic effect
15 | COc1ccc(C(=O)n2c(C)c(CC3=NN(c4cccc(C(F)(F)F)c4)C(=O)C3)c3cc(OC)ccc32)cc1 [Example 58, 3-[1-(4-methoxybenzoyl)-5-methoxy-2-methyl-3-indolylmethyl]-1-(3-trifluoromethylphenyl)-5-pyrazolone] |  | at least 20% | did not have a significant cytotoxic effect
16 | CCCC(=O)n1c(C)c(CC2=NN(C3CCCCC3)C(=O)C2)c2cc(OC)ccc21 [Example 60, 3-[1-butanoyl-5-methoxy-2-methyl-3-indolylmethyl]-1-cyclohexyl-5-pyrazolon] |  | at least 20% | did not have a significant cytotoxic effect
17 | Cc1c(CC2=NN(C3CCCCC3)C(=O)C2)c2cc(Cl)ccc2n1C(=O)c1ccc(Cl)cc1 [Example 62, 3-[1-chlorobenzoyl-5-chloro-2-methyl-3-indolylmethyl]-1-cyclohexyl-5-pyrazolone] |  | at least 20% | did not have a significant cytotoxic effect
18 | Cc1c(CC2=NN(c3cccc(C(F)(F)F)c3)C(=O)C2)c2cc(Cl)ccc2n1C(=O)c1ccc(Cl)cc1 [Example 63, 3-[1-(4-chlorobenzoyl)-5-chloro-2-methyl-3-indolylmethyl]-1-(3-trifluoromethylphenyl)-5-pyrazolone] |  | at least 20% | did not have a significant cytotoxic effect
